ChEMBL document CHEMBL1201862, “PubChem BioAssay data set” (2004)
Activity calls are given as the source filed them.

Experiments:
[1] = antiviral protection against BTV-induced cell death – arbovirus, BSR cells, confirmation (AID 1250); type: functional;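 further: protection from viral cytopathic effect measured as cell viability by ATP luminescence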
[2] = Luminescence Cell-Based Dose Retest to Confirm Inhibitors of Cancer Stem Cells. [Related pubchem assays (depositor defined):AID2717, AID2721]; type: functional; settings: Homo sapiens
[3] = target: T1, Estrogen receptor (Homo sapiens, UniProt P03372); assay: ERα coactivator recruitment enhancers – biochemical, TR-FRET, ERα LBD, dose response (AID 737)
T1 sequence (P03372 whole entry): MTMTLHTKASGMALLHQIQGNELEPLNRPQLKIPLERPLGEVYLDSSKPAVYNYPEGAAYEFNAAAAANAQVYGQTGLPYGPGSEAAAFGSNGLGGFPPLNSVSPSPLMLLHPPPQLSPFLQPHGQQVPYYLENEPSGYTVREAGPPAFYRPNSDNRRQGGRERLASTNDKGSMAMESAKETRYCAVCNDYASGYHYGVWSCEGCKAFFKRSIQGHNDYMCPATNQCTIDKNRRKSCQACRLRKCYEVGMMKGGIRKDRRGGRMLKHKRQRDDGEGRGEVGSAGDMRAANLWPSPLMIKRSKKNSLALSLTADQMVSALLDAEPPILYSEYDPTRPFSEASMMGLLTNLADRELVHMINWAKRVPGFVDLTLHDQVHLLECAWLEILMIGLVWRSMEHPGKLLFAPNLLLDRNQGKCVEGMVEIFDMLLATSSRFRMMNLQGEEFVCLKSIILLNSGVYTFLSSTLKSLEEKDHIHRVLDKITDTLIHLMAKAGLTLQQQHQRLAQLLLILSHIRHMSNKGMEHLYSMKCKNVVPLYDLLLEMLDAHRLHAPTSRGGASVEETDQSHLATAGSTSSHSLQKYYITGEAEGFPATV

[4] = target: T2, Endoribonuclease toxin MazF (Escherichia coli K-12, UniProt P0AE70); assay: activation of MazEF endoribonuclease cleavage – biochemical, fluorescence, single-stranded RNA substrate, uHTS hits, dose response (AID 588481); type: functional
T2 sequence (P0AE70 whole entry): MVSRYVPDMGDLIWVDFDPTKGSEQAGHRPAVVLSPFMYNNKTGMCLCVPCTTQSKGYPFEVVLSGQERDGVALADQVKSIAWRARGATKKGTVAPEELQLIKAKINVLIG

[5] = target: T2, Endoribonuclease toxin MazF; assay: substrate-only fluorescence increase artefacts – biochemical, single-stranded RNase substrate, counter-screen for MazEF activator project, dose response (AID 588502); type: functional
[6] = Counterscreen for IDE inhibitors: Luminescence-based cell-based high throughput dose response assay to identify compounds that are cytotoxic to HEK cells. [Related pubchem assays: 434962 (Primary screen (IDE inhibitors in singlicate)), 449730 (Counterscreen (Cytotoxicity in triplicate)), 435028 (Confirmation (IDE inhibitors in triplicate)) …; type: functional; settings: HEK293
[7] = target: T3, Insulin-degrading enzyme (Homo sapiens, UniProt P14735); assay: Dose Response: Fluorescence polarization-based cell-based high throughput dose response assay for inhibitors of insulin-degrading enzyme (IDE). [Related pubchem assays: 434962 (Primary screen (IDE inhibitors in singlicate)), 449730 (Counterscreen (Cytotoxicity in triplicate)), 435028 (Confirmation (IDE inhibitors in triplicate)), 434984 (Summary …; type: functional
T3 sequence (P14735 whole entry): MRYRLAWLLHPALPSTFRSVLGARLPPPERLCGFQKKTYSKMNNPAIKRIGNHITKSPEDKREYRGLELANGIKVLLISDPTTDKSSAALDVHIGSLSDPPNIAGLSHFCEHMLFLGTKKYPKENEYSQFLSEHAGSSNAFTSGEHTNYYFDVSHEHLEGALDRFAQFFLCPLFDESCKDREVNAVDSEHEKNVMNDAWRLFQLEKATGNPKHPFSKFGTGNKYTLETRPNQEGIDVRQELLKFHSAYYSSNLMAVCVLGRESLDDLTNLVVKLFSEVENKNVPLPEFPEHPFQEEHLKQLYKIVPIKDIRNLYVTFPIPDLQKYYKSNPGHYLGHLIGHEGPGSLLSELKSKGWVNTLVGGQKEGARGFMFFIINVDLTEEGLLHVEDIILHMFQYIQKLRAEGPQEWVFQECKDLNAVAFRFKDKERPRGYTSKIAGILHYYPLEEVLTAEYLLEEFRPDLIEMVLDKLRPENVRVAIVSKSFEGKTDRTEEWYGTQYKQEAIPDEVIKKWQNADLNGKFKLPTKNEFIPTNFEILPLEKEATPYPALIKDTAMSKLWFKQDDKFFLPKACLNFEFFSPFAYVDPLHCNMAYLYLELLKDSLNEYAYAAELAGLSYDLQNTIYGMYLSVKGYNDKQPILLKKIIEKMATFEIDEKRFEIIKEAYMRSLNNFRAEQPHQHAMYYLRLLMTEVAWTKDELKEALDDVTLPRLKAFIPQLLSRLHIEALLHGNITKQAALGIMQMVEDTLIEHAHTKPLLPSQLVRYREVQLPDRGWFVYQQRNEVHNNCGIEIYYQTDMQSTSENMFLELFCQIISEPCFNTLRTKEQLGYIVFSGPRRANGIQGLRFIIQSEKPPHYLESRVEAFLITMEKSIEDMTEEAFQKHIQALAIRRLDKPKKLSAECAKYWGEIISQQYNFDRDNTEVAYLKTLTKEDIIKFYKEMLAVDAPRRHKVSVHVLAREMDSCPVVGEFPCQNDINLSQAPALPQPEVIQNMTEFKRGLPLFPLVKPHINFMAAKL

[8] = target: Luciferin 4-monooxygenase (Photinus pyralis, UniProt P08659); assay: Counter Screen for Luciferase-based Assay Positives. [Related pubchem assays: 620, 618, 411 ]
Luciferin 4-monooxygenase, sequence (P08659 whole entry): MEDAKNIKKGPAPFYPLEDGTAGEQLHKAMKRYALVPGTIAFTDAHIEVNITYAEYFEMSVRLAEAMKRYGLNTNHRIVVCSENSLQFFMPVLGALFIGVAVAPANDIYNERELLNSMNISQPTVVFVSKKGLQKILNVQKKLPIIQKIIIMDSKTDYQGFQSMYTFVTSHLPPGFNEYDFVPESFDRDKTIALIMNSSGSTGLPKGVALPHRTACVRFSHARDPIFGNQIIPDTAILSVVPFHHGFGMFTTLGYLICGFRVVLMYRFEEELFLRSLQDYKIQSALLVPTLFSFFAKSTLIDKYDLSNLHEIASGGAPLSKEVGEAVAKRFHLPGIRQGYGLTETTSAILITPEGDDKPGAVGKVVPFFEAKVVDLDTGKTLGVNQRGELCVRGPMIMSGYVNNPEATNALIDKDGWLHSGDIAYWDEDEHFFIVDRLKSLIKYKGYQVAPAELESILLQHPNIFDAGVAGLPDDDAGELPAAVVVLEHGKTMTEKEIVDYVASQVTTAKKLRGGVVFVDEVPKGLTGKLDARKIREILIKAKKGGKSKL

[9] = system: HT-1080; assay: HT1080 cell viability loss – fluorescence readout (AID 620); type: functional, cell-based; settings: Homo sapiens
[10] = A549 cell cytotoxicity, dose response, cytotoxicity control, plate reader, cherry-pick, antagonist series (AID 743412); type: functional, cell-based
[11] = blockers of bursicon-stimulated LGR2 cAMP reporter – cell-based, HEK293, CRE-luciferase reporter, cherry pick, set 2, dose response (AID 743343); type: functional;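 further: transfected cells were stimulated with diluted bursicon conditioned medium after compound addition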
[12] = blockade of melanocortin 4 receptor signaling – cell-based, plate reader, cherry pick, counter-screen for LGR2 antagonist project, dose response (AID 743444); type: functional;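 further: transfected HEK 293 cells stimulated with alpha-MSH peptide; potency of inhibitors of the alpha-MSH evoked signal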
[13] = viability loss in HEK293 cells – cell-based, plate reader, cherry-picked samples, cytotoxicity control, dose response (AID 743446); type: functional
[14] = A Cell Based Secondary Assay To Explore Cytotoxicity of Compounds that Sensitize Mycobacterium Tuberculosis to Beta-Lactam Antibiotics.; type: functional
[15] = target: T1, Estrogen receptor

Structure (SMILES): CC(C)(Oc1ccc(Cl)cc1)C(=O)NC1=NN(c2ccccc2)C(=O)C1
- IC50 [1]: 31.8 µM (active)
- AC50 [2]: 3.91 µM (active)

Structure (SMILES): CCc1ccc2nc(SCC(=O)N3CC(=O)Nc4ccccc43)c(C#N)cc2c1
- EC50 [3]: 32.9 µM (not active)
- EC50 [4]: > 99 µM (inactive)
- EC50 [5]: > 99 µM (inactive)

Structure (SMILES): CCOc1ccccc1-n1c(SCC(=O)N2CCCc3ccccc32)nnc1-c1cccnc1
- IC50 [6]: 24.8 µM (not active)
- IC50 [7]: > 55.9 µM (not active)

Structure (SMILES): CCOc1ccc(C(=O)NCCc2ccccc2)cc1
- EC50 [8]: 1.09 µM (active)
- EC50 [9]: > 50 µM (not active)
- AC50 [10]: > 52 µM (inactive)
- AC50 [11]: 4.83 µM (active)
- AC50 [12]: 3.43 µM (active)
- AC50 [13]: > 52 µM (inactive)

Structure (SMILES): COC(=O)/C(=C\Nc1ccc(Cl)c2ccccc12)c1ncc(C(F)(F)F)cc1Cl
- CC50 [14]: > 40 µM (active)
- IC50 [15]: > 50 µM (not active)
